Measurements reported in PubChem BioAssay AID212 (DTP/NCI, 2004).
Several values for one entry are separate records, joined by “and”; a condition that tells them apart may be missing. Equal entries are not always repeated. Inconclusive results are not listed.

Test system: BDF1 mice, colon carcinoma 38 sc, T/C %
Assay: NCI In Vivo Anticancer Drug Screen. Data for tumor model Colon Carcinoma 38 (subcutaneous) in B6D2F1 (BDF1) mice
Conditions: endpoint: median tumor weight (est.), higher = larger tumour
Outline: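 Mice with transplanted tumors are treated with compound or vehicle. Survival or tumor size is then measured in both groups. The ratio of treated to control gives the reported figure.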

[1] = dose: 4.0 mg/kg/injection, schedule: Q07DX002 (ip), vehicle: saline with Tween-80
[2] = dose: 10.0 mg/kg/injection, schedule: Q07DX002 (ip), vehicle: saline with Tween-80
[3] = dose: 20.0 mg/kg/injection, schedule: Q07DX002 (ip), vehicle: saline with Tween-80

SMILES: NC(=O)c1csc(C2OC(CO)C(O)C2O)n1 (configuration not stated)
- T/C (dose: 50.0 mg/kg/injection, schedule: Q07DX002 (ip), vehicle: water): 154 % of control
- T/C (dose: 100.0 mg/kg/injection, schedule: Q07DX002 (ip), vehicle: water): 121 % of control and 106 % of control
- T/C (dose: 200.0 mg/kg/injection, schedule: Q07DX002 (ip), vehicle: water): 111 % of control and 92 % of control
- T/C (dose: 400.0 mg/kg/injection, schedule: Q07DX002 (ip), vehicle: water): 124 % of control and 104 % of control
- T/C (dose: 800.0 mg/kg/injection, schedule: Q07DX002 (ip), vehicle: water): 72 % of control

SMILES: COc1cc([C@@H]2c3cc4c(cc3[C@@H](OC3OC5CO[C@@H](c6cccs6)OC5C(O)C3O)[C@H]3COC(=O)[C@H]23)OCO4)cc(OC)c1O (some centres not stated)
- T/C (dose: 1.0 mg/kg/injection, schedule: Q07DX002 (ip), vehicle: suspension in saline): 88 % of control
- T/C (dose: 2.0 mg/kg/injection, schedule: Q07DX002 (ip), vehicle: suspension in saline): 113 % of control and 100 % of control
- T/C (dose: 4.0 mg/kg/injection, schedule: Q07DX002 (ip), vehicle: suspension in saline): 63 % of control and 75 % of control

SMILES: CC(=O)OCC12CCC(C)=CC1OC1C(OS(C)(=O)=O)C(=O)C2(C)C12CO2 (configuration not stated)
- T/C (dose: 0.25 mg/kg/injection, schedule: Q07DX002 (ip), vehicle: saline): 189 % of control
- T/C (dose: 5.0 mg/kg/injection, schedule: Q07DX002 (ip), vehicle: saline): 98 % of control
- T/C (dose: 10.0 mg/kg/injection, schedule: Q07DX002 (ip), vehicle: saline): 88 % of control

SMILES: S=P(N1CC1)(N1CC1)N1CC1
- T/C (dose: 1.5 mg/kg/injection, schedule: Q07DX003 (ip), vehicle: saline): 99 % of control
- T/C (dose: 3.0 mg/kg/injection, schedule: Q07DX003 (ip), vehicle: saline): 50 % of control
- T/C (dose: 6.0 mg/kg/injection, schedule: Q07DX003 (ip), vehicle: saline): 55 % of control

SMILES: O=NN(CCCl)C(=O)NCCCl
- T/C (dose: 1.0 mg/kg/injection, schedule: Q07DX002 (ip), vehicle: saline with Tween-80): 92 % of control
- T/C (dose: 2.5 mg/kg/injection, schedule: Q07DX002 (ip), vehicle: saline with Tween-80): 66 % of control
- T/C (dose: 3.0 mg/kg/injection, schedule: Q07DX002 (ip), vehicle: saline + alcohol): 96 % of control
- T/C [1]: 82 % of control
- T/C (dose: 4.0 mg/kg/injection, schedule: Q07DX003 (ip), vehicle: saline with Tween-80): 97 % of control and 98 % of control
- T/C (dose: 5.0 mg/kg/injection, schedule: Q07DX002 (ip), vehicle: saline with Tween-80): 82 % of control
- T/C (dose: 6.0 mg/kg/injection, schedule: Q07DX002 (ip), vehicle: saline + alcohol): 88 % of control
- T/C (dose: 8.0 mg/kg/injection, schedule: Q07DX003 (ip), vehicle: saline with Tween-80): 71 % of control and 87 % of control
- T/C [2]: 43 % of control
- T/C (dose: 12.0 mg/kg/injection, schedule: Q07DX002 (ip), vehicle: saline + alcohol): 59 % of control
- T/C [3]: 15 % of control
- T/C (dose: 24.0 mg/kg/injection, schedule: Q07DX002 (ip), vehicle: saline + alcohol): 37 % of control
- T/C (dose: 32.0 mg/kg/injection, schedule: Q07DX003 (ip), vehicle: saline with Tween-80): 24 % of control

SMILES: CC(/C=N/N=C(N)N)=N\N=C(N)N
- T/C (dose: 6.25 mg/kg/injection, schedule: Q07DX003 (ip), vehicle: saline): 66 % of control
- T/C (dose: 12.5 mg/kg/injection, schedule: Q07DX003 (ip), vehicle: saline): 66 % of control
- T/C (dose: 25.0 mg/kg/injection, schedule: Q07DX003 (ip), vehicle: saline): 79 % of control
- T/C (dose: 100.0 mg/kg/injection, schedule: Q07DX003 (ip), vehicle: saline): 115 % of control

SMILES: COC1=C(C)C(=O)C2=C(C1=O)C1C3CC4=C(C(=O)C(OC)=C(C)C4=O)C(CNC(=O)C(C)=O)N3C(C#N)C(C2)N1C (configuration not stated)
- T/C (dose: 0.16 mg/kg/injection, schedule: Q07DX002 (ip), vehicle: Klucel (hydroxypropylcellulose) (HPC)): 56 % of control
- T/C (dose: 0.25 mg/kg/injection, schedule: Q07DX002 (ip), vehicle: Klucel (hydroxypropylcellulose) (HPC)): 98 % of control
- T/C (dose: 0.31 mg/kg/injection, schedule: Q07DX002 (ip), vehicle: Klucel (hydroxypropylcellulose) (HPC)): 84 % of control
- T/C (dose: 0.5 mg/kg/injection, schedule: Q07DX002 (ip), vehicle: Klucel (hydroxypropylcellulose) (HPC)): 84 % of control
- T/C (dose: 0.62 mg/kg/injection, schedule: Q07DX002 (ip), vehicle: Klucel (hydroxypropylcellulose) (HPC)): 80 % of control
- T/C (dose: 1.0 mg/kg/injection, schedule: Q07DX002 (ip), vehicle: Klucel (hydroxypropylcellulose) (HPC)): 87 % of control
- T/C (dose: 1.25 mg/kg/injection, schedule: Q07DX002 (ip), vehicle: Klucel (hydroxypropylcellulose) (HPC)): 53 % of control and 73 % of control
- T/C (dose: 2.0 mg/kg/injection, schedule: Q07DX002 (ip), vehicle: Klucel (hydroxypropylcellulose) (HPC)): 72 % of control
- T/C (dose: 4.0 mg/kg/injection, schedule: Q07DX002 (ip), vehicle: Klucel (hydroxypropylcellulose) (HPC)): 77 % of control

SMILES: CCOC(=O)CNC(=O)CCCCSc1ncnc2nc[nH]c12
- T/C (dose: 200.0 mg/kg/injection, schedule: Q07DX003 (ip), vehicle: saline with Tween-80): 74 % of control
- T/C (dose: 400.0 mg/kg/injection, schedule: Q07DX003 (ip), vehicle: saline with Tween-80): 104 % of control
- T/C (dose: 800.0 mg/kg/injection, schedule: Q07DX003 (ip), vehicle: saline with Tween-80): 79 % of control
- T/C (dose: 1600.0 mg/kg/injection, schedule: Q07DX003 (ip), vehicle: saline with Tween-80): 82 % of control

SMILES: Cc1ccc2c(c1)n([O-])c1cc(Cl)ccc1[n+]2=O
- T/C (dose: 25.0 mg/kg/injection, schedule: Q07DX002 (ip), vehicle: saline with Tween-80): 118 % of control
- T/C (dose: 50.0 mg/kg/injection, schedule: Q07DX002 (ip), vehicle: saline with Tween-80): 102 % of control
- T/C (dose: 100.0 mg/kg/injection, schedule: Q07DX002 (ip), vehicle: saline with Tween-80): 78 % of control
- T/C (dose: 200.0 mg/kg/injection, schedule: Q07DX002 (ip), vehicle: saline with Tween-80): 76 % of control
- T/C (dose: 400.0 mg/kg/injection, schedule: Q07DX002 (ip), vehicle: saline with Tween-80): 79 % of control

SMILES: CCOC(=O)C(N)CSC(=O)NC (configuration not stated)
- T/C (dose: 125.0 mg/kg/injection, schedule: Q07DX002 (ip), vehicle: saline): 83 % of control
- T/C (dose: 250.0 mg/kg/injection, schedule: Q07DX002 (ip), vehicle: saline): 110 % of control
- T/C (dose: 500.0 mg/kg/injection, schedule: Q07DX002 (ip), vehicle: saline): 81 % of control

SMILES: C[n+]1cccc(NC(=O)c2ccc(NC(=O)C34CCC(C(=O)Nc5ccc(C(=O)Nc6ccc[n+](C)c6)cc5)(CC3)CC4)cc2)c1
- T/C [2]: 60 % of control
- T/C [3]: 57 % of control
- T/C (dose: 22.5 mg/kg/injection, schedule: Q07DX002 (ip), vehicle: saline with Tween-80): 93 % of control
- T/C (dose: 40.0 mg/kg/injection, schedule: Q07DX002 (ip), vehicle: saline with Tween-80): 28 % of control
- T/C (dose: 45.0 mg/kg/injection, schedule: Q07DX002 (ip), vehicle: saline with Tween-80): 71 % of control
- T/C (dose: 80.0 mg/kg/injection, schedule: Q07DX002 (ip), vehicle: saline with Tween-80): 20 % of control
- T/C (dose: 90.0 mg/kg/injection, schedule: Q07DX002 (ip), vehicle: saline with Tween-80): 109 % of control

SMILES: CCCCCc1cc(/C=C2/N=C(c3ccc[nH]3)C=C2OC)[nH]c1C
- T/C (dose: 0.5 mg/kg/injection, schedule: Q07DX002 (ip), vehicle: saline with Tween-80): 94 % of control
- T/C (dose: 2.0 mg/kg/injection, schedule: Q07DX002 (ip), vehicle: saline with Tween-80): 163 % of control
- T/C [1]: 106 % of control
- T/C (dose: 8.0 mg/kg/injection, schedule: Q07DX002 (ip), vehicle: saline with Tween-80): 120 % of control
- T/C (dose: 16.0 mg/kg/injection, schedule: Q07DX002 (ip), vehicle: saline with Tween-80): 108 % of control

SMILES: NC(CCl)=NCC12CC3CC(CC(C3)C1)C2
- T/C (dose: 6.25 mg/kg/injection, schedule: Q07DX003 (ip), vehicle: Klucel (hydroxypropylcellulose) (HPC)): 72 % of control
- T/C (dose: 25.0 mg/kg/injection, schedule: Q07DX003 (ip), vehicle: Klucel (hydroxypropylcellulose) (HPC)): 39 % of control
- T/C (dose: 100.0 mg/kg/injection, schedule: Q07DX003 (ip), vehicle: Klucel (hydroxypropylcellulose) (HPC)): 94 % of control
